These results are taken from patent publication EP0363589A2, “Somatostatin analogues” (SYNTEX (U.S.A.) INC., priority 1988, dated 1990).

The test system of assay [1] is insulin-induced glucagon release. The assay is described as follows: Insulin-induced glucagon assay. Particulars: derived from the glucagon and insulin assays in rats. It is filed as in vivo. As to the method:
After several days of acclimatization, rats were weigh-grouped and used on the succeeding one to three days. The rats were injected subcutaneously with 40 mg/kg pentobarbitol(Nembutal). Approximately 30 minutes after injection, the jugular and the hepatic portal veins were exposed and an injection of 0.1% bovine serum albumin (BSA)-saline vehicle or 1 IU/1 ml/kg porcine insulin in the same vehicle was administered into the jugular vein. At precisely 15 minutes after the intravenous (i.v.)injection a 1 ml blood sample was collected from the hepatic portal vein and the rat sacrificed with C02.
The blood sample was collected into a syringe containing 0.70 mg Na-EDTA and 0.1 mg Aprotinin, a commercially available protease inhibitor, in 0.1 ml 0.9% saline. The blood sample was mixed in the syringe and transferred to a plastic microcontainer serum-separator tube and held in the dark on ice. Plasma was harvested within 6 hours by centrifugation and stored at -20°C. The test material was administered intramuscularly to the animal immediately prior to the i.v. injection of insulin. Plasma samples were analyzed for levels of glucagon using a commercially available radioimmuneassay kit for animal glucagon (Cambridge Medical Technology). […]

Assay [2] has as its system growth hormone. Description: Nembutal-induced growth hormone assay. The format is in vivo, male rats. The following applies: derived from the growth hormone and insulin assays in rats. As to the method: After several days of acclimatization, male rats were weight-grouped and used on the succeeding one to three days. The rats were fasted the day prior to use. Each test rat was given an intramuscular (IM) injection of test compound or vehicle (0.1 % BSA-saline) into the right rear leg.
Immediately following the IM injection, a subcutaneous injection of Nembutal (60 mg/kg) was given. Thirteen minutes after Nembutal administration, each rat was exposed to 2 minutes of ether anesthesia followed by the collection of a 1 ml blood sample via the ocular orbit. Serum separator tubes were used to prepare serum from the blood samples. The serum samples were stored at -20°C until analysis by radioimmune assay. The mean percent inhibition of growth hormone was determined for the test compounds using the method as described in Examples 4 and 5 and the EDso derived.

On to Sandostatin, for which, in assay [1], the “Relative selectivities for glucagon/insulin” value was determined as 11. The “Relative selectivities for growth hormone/insulin” value in assay [2] is recorded as 103.
